Experimental data published in patent US20100105652A1, “PURINES AS CYSTEINE PROTEASE INHIBITORS” (Glaxo Group Limited, priority 2007, published 2010).
Counter-ions that a name gives are not always drawn.

What was measured:
[1] = system: Plasmodium falciparum parasite; assay: whole cell activity against the Plasmodium falciparum parasite; format: cell-based
Source text: Equation 7 describes the apparent KI for competitive compounds and was substituted into equations 5 and 6 to generate the relevant binding constants from the fitting routine. In addition, the initial and final velocities were fit to equation 3 to further define the binding mechanism and potency. A complete discussion of this kinetic treatment has been fully described (Morrison et al., Adv. Enzymol. Relat. Areas Mol. Biol., 1988, 61, 201). 2) Determination of Whole Cell Activity Against the Plasmodium falciparum Parasite Compounds can be evaluated for whole cell activity against the Plasmodium falciparum parasite according to the procedure described in Sijwali S, and Rosenthal P. J., (2004) Proceedings of the National Academy of Sciences of the United States of America (PNAS) 101(13), 4384-4389 (see in particular “Measurement of Parasite Growth rates and Inhibitor Sensitivity” on page 4385); IC50 values can be calculated as described in Singh A. and Rosenthal P. J., (2001) Antimicrobial Agents and Chemotherapy 45(3), 949-951 (see in particular page 950, first column); synchronised parasites can be prepared as described in Divo A. A. et al., (1985) Protozool. 32, 59-64.

Falcipain-3 = biological target: T1, Falcipain-3 (Plasmodium falciparum, UniProt Q8IIL0); assay: falcipain-3 enzymatic assay (fluorogenic substrate H-D-VLR-AFC, endpoint); format: biochemical; conditions: parasitic recombinant enzyme, pH 5.5, quenched after 60 minutes
T1 sequence (Q8IIL0 243-492): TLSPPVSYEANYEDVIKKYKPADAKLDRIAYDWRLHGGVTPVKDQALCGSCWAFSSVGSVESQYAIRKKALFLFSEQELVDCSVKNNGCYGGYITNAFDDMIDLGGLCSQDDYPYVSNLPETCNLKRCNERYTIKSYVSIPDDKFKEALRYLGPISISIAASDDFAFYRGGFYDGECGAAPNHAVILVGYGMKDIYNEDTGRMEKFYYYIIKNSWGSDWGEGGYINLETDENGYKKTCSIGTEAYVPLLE
Experimental: (§1) 1) Determination of Falcipain-2, Falcipain-3, Vivapain-2, and Cathepsin S Proteolytic Catalytic Activity
(§2) Assays for Falcipain-2, Falcipain-3, and Vivapain-2 are carried out with parasitic recombinant enzymes. Cathepsins S is carried out with human recombinant enzymes. Standard assay conditions for the determination of kinetic constants used a fluorogenic peptide substrate, typically H-D-VLR-AFC (Falcipain-2, Falcipain-3, Vivapain-2) or KQKLR-AMC (Cathepsin S) and are determined in 100 mM sodium acetate, pH 5.5, containing 10 mM DTT and 0.5 mM CHAPS (Falcipain-2, Falcipain-3, Vivapain-2), or 50 mM MES, pH 6.5, containing 0.5 mM CHAPS, 10 mM L-CYS, 5 mM EDTA (Cathepsin S). Stock substrate solutions are prepared at 20 mM in DMSO. The activity assays contained 30 uM substrate (Falcipain-2, Falcipain-3, Vivapain-2), and 30 uM substrate (Cathepsin S). All assays contained 1% DMSO. […] All assays are conducted at ambient temperature as end point assays being quenched after 60 minutes with the exception of Cathepsin S at 90 minutes, with 16.6 uM E-64 in 1% DMSO. Product formation (AFC or AMC) is determined from fluorescence (excitation at 405 nm; emission at 530 nm, AFC, or excitation at 360 nm; emission at 460 nm, AMC) monitored with a LJL Aquest (Molecular Devices) fluorescent plate reader. In the case of kinetic reads (used in mechanism of action studies), the reaction is not quenched but is read in the plate reader every 3 minutes for approximately 90 minutes. In addition, the mechanism of action studies for Falcipain-2 utilize Z-LR-AMC as the substrate. Product formation is determined from the fluorescence of AMC, measured with a LJL Acquest (Molecular Devices) fluorescent plate reader (excitation at 360 nm; emission at 460 nm).
(§3) Potential inhibitors are evaluated using the quenched read (endpoint) method. Assays are carried out in the presence of variable concentrations of test compound. Reactions are initiated by addition of enzyme and substrate to wells containing inhibitor stamped in 100% DMSO. For endpoint assays, the reaction is quenched with the addition of E64. Dose response data is fit to an IC50 curve with preset fitting tools according to equation 1:
(§4) y=a+(b−a)/(1+(10^X/10^C)^d) (1)
(§5) where y is the response at a particular inhibitor concentration x, a is the minimum response value, b is the maximum response value, c is the IC50, and d is the slope of the IC50 curve. Assuming the compound is a competitive inhibitor, the apparent KI can be calculated from IC50, as shown in equation 2: […]

Falcipain-2 = biological target: T2, Falcipain-2 (Plasmodium falciparum, UniProt Q8I6U4); assay: falcipain-2 enzymatic assay (fluorogenic substrate H-D-VLR-AFC, endpoint); format: biochemical; conditions: parasitic recombinant enzyme, pH 5.5, quenched after 60 minutes
T2 sequence (Q8I6U4 244-484): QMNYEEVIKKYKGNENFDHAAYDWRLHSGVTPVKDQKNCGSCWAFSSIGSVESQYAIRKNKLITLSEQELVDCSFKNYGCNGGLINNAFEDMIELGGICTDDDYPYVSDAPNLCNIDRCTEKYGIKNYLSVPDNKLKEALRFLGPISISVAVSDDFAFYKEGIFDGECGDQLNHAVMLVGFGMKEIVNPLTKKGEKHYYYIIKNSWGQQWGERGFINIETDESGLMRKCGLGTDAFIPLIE
Experimental: as §1, §2, §3, §4, §5

Compound | IC50 [1] | IC50 (Falcipain-3) | IC50 (Falcipain-2)
CN1CCN(C(=O)C2CCN(Cc3ccc(C(=O)NN(c4nc(C#N)nc5c4ncn5C)C4CCCCC4)cc3)CC2)CC1 [Example 10, N′-(2-cyano-9-methyl-9H-purin-6-yl)-N′-cyclohexyl-4-({4-[(4-methyl-1-piperazinyl)carbonyl]-1-piperidinyl}methyl)benzohydrazide trifluoroacetate] | 2.5 to 15 nM | 15 to 150 nM | 2.5 to 15 nM
CN1CCN(C(=O)C2CCN(Cc3ccc(C(=O)NN(c4nc(C#N)nc5c4ncn5C)C4CCCC4)cc3)CC2)CC1 [Example 6, N′-(2-cyano-9-methyl-9H-purin-6-yl)-N′-cyclopentyl-4-({4-[(4-methyl-1-piperazinyl)carbonyl]-1-piperidinyl}methyl)benzohydrazide trifluoroacetate] | 15 to 150 nM | 150 to 250 nM | 2.5 to 15 nM
CN(C)CCCn1cnc2c(N(NC(=O)c3ccc(CN4CCN(C)CC4)cc3)C3CCCCC3)nc(C#N)nc21 [Example 31, N′-{2-cyano-9-[3-(dimethylamino)propyl]-9H-purin-6-yl}-N′-cyclo hexyl-4-[(4-methyl-1-piperazinyl)methyl]benzohydrazide trifluoroacetate] | 15 to 150 nM | 15 to 150 nM | 2.5 to 15 nM
CN1CCN(Cc2cccc(C(=O)NN(c3nc(C#N)nc4c3ncn4C)C3CCCC3)n2)CC1 [Example 26, N′-(2-cyano-9-methyl-9H-purin-6-yl)-N′-cyclopentyl-6-[(4-methyl-1-piperazinyl)methyl]-2-pyridinecarbohydrazide trifluoroacetate] | 250 to 400 nM | 150 to 250 nM | 2.5 to 15 nM
CC(C)(C)OC(=O)NN(CC1CCCC1)c1nc(C#N)nc2c1ncn2CCN1C(=O)c2ccccc2C1=O [Example 21, 1,1-dimethylethyl-2-{2-cyano-9-[2-(1,3-dioxo-1,3-dihydro-2H-isoindol-2-yl)ethyl]-9H-purin-6-yl}-2-(cyclopentylmethyl)hydrazinecarboxylate] | 250 to 400 nM | 250 to 400 nM | 15 to 150 nM
CN(C)CCCn1cnc2c(N(NC(=O)OC(C)(C)C)C3CCCC3)nc(C#N)nc21 [Example 15, 1,1-dimethylethyl 2-{2-cyano-9-[3-(dimethylamino)propyl]-9H-purin-6-yl}-2-cyclopentylhydrazinecarboxylate trifluoroacetate] | 15 to 150 nM | 15 to 150 nM | 2.5 to 15 nM
CN1CCC(CN2CCN(Cc3ccc(C(=O)NN(c4nc(C#N)nc5c4ncn5C)C4CCCC4)cc3)CC2)CC1 [Example 5, N′-(2-cyano-9-methyl-9H-purin-6-yl)-N′-cyclopentyl-4-({4-[(1-methyl-4-piperidinyl)methyl]-1-piperazinyl}methyl)benzohydrazide trifluoroacetate] | 2.5 to 15 nM | 250 to 400 nM | 2.5 to 15 nM
CN1CCN(Cc2ccc(-c3cccc(C(=O)NN(c4nc(C#N)nc5c4ncn5C)C4CCCC4)n3)cc2)CC1 [Example 28, N′-(2-cyano-9-methyl-9H-purin-6-yl)-N′-cyclopentyl-6-{4-[(4-methyl-1-piperazinyl)methyl]phenyl}-2-pyridinecarbohydrazide trifluoroacetate] | 15 to 150 nM | 15 to 150 nM | 2.5 to 15 nM
CN(C)CCn1cnc2c(N(CC3CCCC3)NC(=O)c3ccc(CN4CCN(C)CC4)cc3)nc(C#N)nc21 [Example 14, N′-{2-cyano-9-[2-(dimethylamino)ethyl]-9H-purin-6-yl}-N′-(cyclopentylmethyl)-4-[(4-methyl-1-piperazinyl)methyl]benzohydrazide trifluoroacetate] | 15 to 150 nM | 15 to 150 nM | 2.5 to 15 nM
CN1CCN(Cc2ccc(C(=O)NN(c3nc(C#N)nc4[nH]cnc34)C3CCCCC3)cc2)CC1 [Example 30, N′-(2-cyano-1H-purin-6-yl)-N′-cyclohexyl-4-[(4-methyl-1-piperazinyl)methyl]benzohydrazide trifluoroacetate] | 400 to 1000 nM | 15 to 150 nM | 2.5 to 15 nM
CN1CCN(C(=O)n2cnc3c(N(NC(=O)OC(C)(C)C)C4CCCCC4)nc(C#N)nc32)CC1 [Example 35, 1,1-dimethylethyl 2-{2-cyano-9-[(4-methyl-1-piperazinyl)carbonyl]-9H-purin-6-yl}-2-cyclohexylhydrazinecarboxylate trifluoroacetate] | 150 to 250 nM | 1 to 2.5 nM | ≤ 1 nM
CC(C)CN(NC(=O)c1ccc(CN2CCN(C)CC2)cc1)c1nc(C#N)nc2c1ncn2C [Example 22, N′-(2-cyano-9-methyl-9H-purin-6-yl)-4-[(4-methyl-1-piperazinyl)methyl]-N′-(2-methylpropyl)benzohydrazide] | 400 to 1000 nM | 250 to 400 nM | 15 to 150 nM
CN(C)CCn1cnc2c(N(NC(=O)c3cccc(N4CCN(C)CC4)c3)C3CCCC3)nc(C#N)nc21 [Example 41, N′-{2-cyano-9-[2-(dimethylamino)ethyl]-9H-purin-6-yl}-N′-cyclopentyl-3-(4-methyl-1-piperazinyl)benzohydrazide bis(trifluoroacetate)] | 15 to 150 nM | 15 to 150 nM | 1 to 2.5 nM
Cn1cnc2c(N(NC(=O)c3ccc(CN4CC(N5CCCC5)C4)cc3)C3CCCC3)nc(C#N)nc21 [Example 7, N′-(2-cyano-9-methyl-9H-purin-6-yl)-N′-cyclopentyl-4-({[3-(1-pyrrolidinyl)-1-azetidinyl]methyl}benzohydrazide trifluoroacetate] | 15 to 150 nM | 250 to 400 nM | 2.5 to 15 nM
Cn1cnc2c(N(NC(=O)c3ccc(CN4CC(N5CCCC5)C4)cc3)C3CCCCC3)nc(C#N)nc21 [Example 11, N′-(2-cyano-9-methyl-9H-purin-6-yl)-N′-cyclohexyl-4-({[3-(1-pyrrolidinyl)-1-azetidinyl]methyl}benzohydrazide trifluoroacetate] | 15 to 150 nM | 15 to 150 nM | 2.5 to 15 nM
CN(CCn1cnc2c(N(NC(=O)OC(C)(C)C)C3CCCC3)nc(C#N)nc21)C(C)(C)C [Example 43, 1,1-dimethylethyl 2-(2-cyano-9-{2-[(1,1-dimethylethyl)(methyl)amino]ethyl}-9H-purin-6-yl)-2-cyclopentylhydrazinecarboxylate trifluoroacetate] | 250 to 400 nM | 15 to 150 nM | 2.5 to 15 nM
CN1CCC(N2CCN(Cc3ccc(C(=O)NN(CC4CCCC4)c4nc(C#N)nc5c4ncn5C)cc3)CC2)CC1 [Example 18, N′-(2-cyano-9-methyl-9H-purin-6-yl)-N′-(cyclopentylmethyl)-4-({[4-(1-methyl-4-piperidinyl)-1-piperazinyl]methyl}benzohydrazide trifluoroacetate] | 15 to 150 nM | 15 to 150 nM | 2.5 to 15 nM
